The structures appear in SMILES notation. Starred links: 1 amine or outer side, 2 acyl side, 3 side chain; linkers in the order of their positions; H or OH if unused. Non-standard residues stand in square brackets, D forms with d. Residues, ends and D or L forms follow the SMILES beside them. Groups on a side chain read outwards from the residue. *: point of attachment. dPhe(4-Cl) = N[C@H](Cc1ccc(Cl)cc1)C(=O)O; d1Nal = N[C@H](Cc1cccc2ccccc12)C(=O)O; d2Nal = N[C@H](Cc1ccc2ccccc2c1)C(=O)O; X1 = CCNC[C@@H](C(=O)[*:2])N(C)[*:1]; Lys(iPr) = CC(C)NCCCC[C@H](N)C(=O)O; NMeY = CN[C@@H](Cc1ccc(O)cc1)C(=O)O; d3Pal = N[C@H](Cc1cccnc1)C(=O)O; NMeL = CN[C@@H](CC(C)C)C(=O)O; pGlu = O=C1CC[C@@H](C(=O)O)N1; Nicotinoyl = O=C(c1cccnc1)*; NMeS = CN[C@@H](CO)C(=O)O; Morpholide = C1CN(*)CCO1; CO = O=C([*:1])[*:2]; azaGly = NNC(=O)O; Sar = CNCC(=O)O

For assay [1], the target named is T1, LH release (Rattus norvegicus, UniProt P30969).
T1 sequence (P30969 1-327): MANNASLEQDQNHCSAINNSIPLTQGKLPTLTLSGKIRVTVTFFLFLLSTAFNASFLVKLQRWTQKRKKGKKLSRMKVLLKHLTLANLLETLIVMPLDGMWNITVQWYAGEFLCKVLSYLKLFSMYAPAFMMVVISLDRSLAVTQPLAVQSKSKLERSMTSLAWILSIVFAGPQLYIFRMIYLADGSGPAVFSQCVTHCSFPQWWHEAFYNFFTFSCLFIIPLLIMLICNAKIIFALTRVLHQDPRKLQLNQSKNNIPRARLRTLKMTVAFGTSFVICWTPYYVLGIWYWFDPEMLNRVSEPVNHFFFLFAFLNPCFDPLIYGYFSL
As to the kind of experiment: In vitro LH release from dissociated rat pituitary cells (agonists). It is filed as cell-based. Particulars: negative log of concentration producing half-maximal release of LH, 3 hours at 37° C.
Method: Rat pituitaries are removed from immature female rats, minced, and dissociated with collagenase/hyaluronidase. They are allowed to attach to 48-well microtiter plates for 48-72 hours, then are exposed to test compounds for 3 hours at 37° C. The medium is assayed for released LH by RIA (radioimmunoassay).

The target of assay [2] is T1, LH release. The assay can be described thus: In vivo LH release in castrated rats. As to conditions: dose producing half-maximal LH release, time integrated LH response; for ED50: rat, iv, i.v., read-out: ED50 ug/kg i.v. How it is done:
The compound to be tested is administered to castrated rats intraveneously and the serum LH concentration at various time points is measured by RIA. The time integrated LH response is calculated and the dose producing half-maximal LH release (ED50) is reported.

The next assay addresses T2, LHRH receptors (Rattus norvegicus, UniProt P30969).
T2 sequence (P30969 1-327): T1 sequence (P30969 1-327)
The assay can be described thus: Radioligand receptor binding assay, rat pituitary membranes. As to conditions: radioiodinated [D-Leu6-des Gly10]-LHRH ethyl amide 50 pM, 2 hours at 4° C., read-out: Receptor Binding pkI (converted). How it is done:
The radioligand (50 pM), receptors, and compounds to be tested are coincubated for 2 hours at 4° C. Bound ligand is separated from free ligand via centrifugation and aspiration.

In assay [3] the test system is LH concentration in the blood. The assay can be described thus: In vivo LH inhibition in male castrate rats. As to conditions: AUC of log(LHt/LHi) over 24 hours, 30 ug/kg subcutaneous bolus. The arrangement: species or system rat. How it is done: The compound to be tested is administered at 30 μg/kg subcutaneously by bolus injection to male castrate rats and blood samples are collected periodically over 24 hours. The AUC (area under the curve) of the LH supression data as a function of time is calculated using the formula log (LHt /LHi) wherein LHt is the LH concentration in the blood at time t and LHi is the initial baseline value for the concentration of LH in the blood. The AUC values are negative numbers.

As to `CCNC(=O)[C@@H]1CCCN1C(=O)[C@H](CCCNC(=N)N)NC(=O)[C@H](CC(C)C)NC(=O)[C@@H](CC(C)C)NC(=O)[C@H](Cc1ccc(O)cc1)NC(=O)[C@H](CO)N(C)C(=O)[C@H](Cc1c[nH]c2ccccc12)NC(=O)[C@H](Cc1c[nH]cn1)NC(=O)[C@@H]1CCC(=O)N1` [Ex. 1, (pyro)Glu-His-Trp-N-Me-Ser-Tyr-D-Leu-Leu-Arg-Pro-NHEt] ([pGlu]HW[NMeS]Y[dL]LRP-NHEt), at LH release [1], the “LH Release pD2” value is 9.43. Also, the ED50 on LH release [2] was determined as 7.2 µg/kg.
`CC(C)C[C@H](NC(=O)[C@@H](Cc1ccc2ccccc2c1)NC(=O)[C@H](Cc1ccc(O)cc1)NC(=O)[C@H](CO)N(C)C(=O)[C@H](Cc1c[nH]c2ccccc12)NC(=O)[C@H](Cc1c[nH]cn1)NC(=O)[C@@H]1CCC(=O)N1)C(=O)N[C@@H](CCCNC(=N)N)C(=O)N1CCC[C@H]1C(=O)NCC(N)=O` [Ex. 3, (pyro)Glu-His-Trp-N-Me-Ser-Tyr-D-(2)-Nal-Leu-Arg-Pro-Gly-NH2]: at LH release [2], the ED50 came to 0.129 µg/kg.
`CCNC[C@@H](C(=O)N[C@@H](Cc1ccc(O)cc1)C(=O)N[C@H](Cc1c[nH]c2ccccc12)C(=O)N[C@@H](CC(C)C)C(=O)N[C@@H](CCCNC(=N)N)C(=O)N1CCC[C@H]1C(=O)NCC)N(C)C(=O)[C@H](Cc1c[nH]c2ccccc12)NC(=O)[C@H](Cc1c[nH]cn1)NC(=O)CN(C)C(C)=O` [Ex. 7, N-Ac-Sar-His-Trp-(3)-N-Et-(2)-N-Me-Dap-Tyr-D-Trp-Leu-Arg-Pro-NHEt] (Ac-[Sar]HW[X1]Y[dW]LRP-NHEt): at LH release [1], the “LH Release pD2” value came out at 9.73. On LH release [2], the ED50 ug/kg i.v. turned out to be 9.64 µg/kg.
Consider `CCNC(=O)CC[C@H](NC(=O)NCC)C(=O)N[C@@H](Cc1c[nH]cn1)C(=O)N[C@@H](Cc1c[nH]c2ccccc12)C(=O)N(C)[C@@H](CO)C(=O)N[C@@H](Cc1ccc(O)cc1)C(=O)N[C@H](Cc1c[nH]c2ccccc12)C(=O)N[C@@H](CC(C)C)C(=O)N[C@@H](CCCNC(=N)N)C(=O)N1CCC[C@H]1C(=O)NCC` [Ex. 12, (2)-N-(Ethylaminocarbonyl)-(5)-N-ethylamido-Glu-His-Trp-N-Me-Ser-Tyr-D-Trp- Leu-Arg-Pro-NHEt], for which the Ki at LHRH receptors was 1.05 nM. In addition, the “LH Release pD2” value at LH release [1] came to 9.31. Moreover, the ED50 on LH release [2] was 9.9 µg/kg.
Turning to `CCNC(=O)[C@@H]1CCCN1C(=O)[C@H](CCCNC(=N)N)NC(=O)[C@H](CC(C)C)NC(=O)[C@@H](Cc1c[nH]c2ccccc12)NC(=O)[C@H](Cc1ccc(O)cc1)NC(=O)[C@H](CO)N(C)C(=O)[C@H](Cc1c[nH]c2ccccc12)NC(=O)[C@H](Cc1c[nH]cn1)NC(=O)CN(C)C(C)=O` [Ex. 14, N-AcSar-His-Trp-N-Me-Ser-Tyr-D-Trp-Leu-Arg-Pro-NHEt] (Ac-[Sar]HW[NMeS]Y[dW]LRP-NHEt), at LH release [2], the ED50 was 0.39 µg/kg.
On the same count and under the same terms, next, `CCNC(=O)[C@@H]1CCCN1C(=O)[C@H](CCCNC(=N)N)NC(=O)[C@H](CC(C)C)NC(=O)[C@@H](Cc1c[nH]c2ccccc12)NC(=O)[C@H](Cc1ccc(O)cc1)NC(=O)[C@H](CO)N(C)C(=O)[C@H](Cc1c[nH]c2ccccc12)NC(=O)[C@H](Cc1c[nH]cn1)NC(=O)[C@@H]1CCC(=O)N1` [Ex. 15, (pyro)Glu-His-Trp-N-Me-Ser-Tyr-D-Trp-Leu-Arg-Pro-NHEt]: 1.38 µg/kg.
As for `CC(=O)N[C@H](Cc1ccc2ccccc2c1)C(=O)N[C@H](Cc1ccc(Cl)cc1)C(=O)N[C@H](Cc1cccnc1)C(=O)N[C@@H](CO)C(=O)N(C)[C@@H](Cc1ccc(O)cc1)C(=O)N[C@H](CCCCNC(=O)c1cccnc1)C(=O)N[C@@H](CC(C)C)C(=O)N[C@@H](CCCCNC(C)C)C(=O)N1CCC[C@H]1C(=O)N(C)CC(N)=O` [Ex. 44, N-Ac-D-2-Nal-D-4-Cl-Phe-D-3-Pal-Ser-N-Me-Tyr-D-Lys(N-epsilon-nicotinyl)-Leu-Lys(N-epsilon-isopropyl)-Pro-SarNH2] (Ac-[d2Nal][dPhe(4-Cl)][d3Pal]S[NMeY][dK](Nicotinoyl)L[Lys(iPr)]P[Sar]-NH2), the Ki at LHRH receptors was 0.0331 nM. Moreover, the “AUC (24 hr. after 30 ug/kg)” value in assay [3] is given as -571.
As for `CC(=O)N(C)CC(=O)N[C@H](Cc1ccc(Cl)cc1)C(=O)N[C@H](Cc1cccc2ccccc12)C(=O)N[C@@H](CO)C(=O)N(C)[C@@H](Cc1ccc(O)cc1)C(=O)N[C@H](CCCCNC(=O)c1cccnc1)C(=O)N[C@@H](CC(C)C)C(=O)N[C@@H](CCCCNC(C)C)C(=O)N1CCC[C@H]1C(=O)N[C@H](C)C(N)=O` [Ex. 63, N-Ac-Sar-D-4-Cl-Phe-D-1-Nal-Ser-N-Me-Tyr-D-Lys(N-epsilon-nicotinyl)-Leu-Lys(N-epsilon-isopropyl)-Pro-D-AlaNH2] (Ac-[Sar][dPhe(4-Cl)][d1Nal]S[NMeY][dK](Nicotinoyl)L[Lys(iPr)]P[dA]-NH2), at LHRH receptors, the Ki was 0.0447 nM. Further, the “AUC (24 hr. after 30 ug/kg)” value in assay [3] is on record as -707.
In the same order, the values of `CC(=O)NNC(=O)N[C@H](Cc1ccc(Cl)cc1)C(=O)N[C@H](Cc1cccc2ccccc12)C(=O)N[C@@H](CO)C(=O)N(C)[C@@H](Cc1ccc(O)cc1)C(=O)N[C@H](CCCCNC(=O)c1cccnc1)C(=O)N[C@@H](CC(C)C)C(=O)N[C@@H](CCCCNC(C)C)C(=O)N1CCC[C@H]1C(=O)N[C@H](C)C(N)=O` [Ex. 65, N-Ac-alpha-Azagly-D-4-Cl-Phe-D-1-Nal-Ser-N-Me-Tyr-D-Lys(N-epsilon-nicotinyl)-Leu-Lys(N-epsilon-isopropyl)-Pro-D-AlaNH2] (Ac-[azaGly][dPhe(4-Cl)][d1Nal]S[NMeY][dK](Nicotinoyl)L[Lys(iPr)]P[dA]-NH2) are 0.0575 nM and -1114.
With `CC(=O)N[C@H](Cc1ccc2ccccc2c1)C(=O)N[C@H](Cc1ccc(Cl)cc1)C(=O)N[C@H](Cc1cccnc1)C(=O)N[C@@H](CO)C(=O)N(C)[C@@H](Cc1ccc(O)cc1)C(=O)N[C@H](CCCCNC(=O)c1cccnc1)C(=O)N(C)[C@@H](CC(C)C)C(=O)N[C@@H](CCCCNC(C)C)C(=O)N1CCC[C@H]1C(=O)N[C@H](C)C(N)=O` [Ex. 67, N-Ac-D-2-Nal-D-4-Cl-Phe-D-3-Pal-Ser-N-Me-Tyr-D-Lys(N-epsilon-nicotinyl)-N-Me-Leu-Lys(N-epsilon-isopropyl)-Pro-D-AlaNH2] (Ac-[d2Nal][dPhe(4-Cl)][d3Pal]S[NMeY][dK](Nicotinoyl)[NMeL][Lys(iPr)]P[dA]-NH2), the Ki at LHRH receptors was 0.0302 nM. In assay [3], the “AUC (24 hr. after 30 ug/kg)” value is recorded as -400.
Regarding `CC(=O)N[C@H](Cc1ccc2ccccc2c1)C(=O)N[C@H](Cc1ccc(Cl)cc1)C(=O)N[C@H](Cc1cccnc1)C(=O)N[C@@H](CO)C(=O)N(C)[C@@H](Cc1ccc(O)cc1)C(=O)N[C@H](CCCCNC(=O)N1CCOCC1)C(=O)N[C@@H](CC(C)C)C(=O)N[C@@H](CCCCNC(C)C)C(=O)N1CCC[C@H]1C(=O)N[C@H](C)C(N)=O` [Ex. 69] (Ac-[d2Nal][dPhe(4-Cl)][d3Pal]S[NMeY][dK]([CO-Morpholide])L[Lys(iPr)]P[dA]-NH2), the Ki on LHRH receptors was 0.017 nM. The “AUC (24 hr. after 30 ug/kg)” value in assay [3] is given as -467.
On to `CC(C)C[C@H](NC(=O)CNC(=O)[C@H](Cc1ccc(O)cc1)NC(=O)[C@H](CO)NC(=O)[C@H](Cc1c[nH]c2ccccc12)NC(=O)[C@H](Cc1c[nH]cn1)NC(=O)[C@@H]1CCC(=O)N1)C(=O)N[C@@H](CCCNC(=N)N)C(=O)N1CCC[C@H]1C(=O)NCC(N)=O` [LHRH, reference compound], for which the ED50 on LH release [2] is 100 µg/kg.
